{"source": "paper PMC4109893", "about": "(MedChemComm, 2014)", "system": "mammalian GPAT", "assay": "GPAT inhibition in vitro", "assay_type": "biochemical", "conditions": "for fold decrease in inhibition compared to corresponding linker-free analog: 15a vs 13d, 18b vs 12h; for fold increase in inhibitory activity compared to 1c: relative to 1c; for IC50: read-out: IC50 (µM) ± SD", "note": "Like-named read-outs stand apart in the source and are kept apart here.", "data": [{"compound": "CCCCCCCCS(=O)(=O)Nc1ccc(C(=O)c2ccc(CCCC)cc2)cc1C(=O)O", "note": "[Compound 15a]", "values": [{"measurement": "fold decrease in inhibition compared to corresponding linker-free analog", "value": 3.5, "unit": "fold"}]}, {"compound": "CCCCCCCCS(=O)(=O)Nc1ccc(-c2ccccc2-c2ccccc2)cc1C(=O)O", "note": "[Compound 13e]", "values": [{"measurement": "fold increase in inhibitory activity compared to 1c", "value": 2.5, "unit": "fold"}]}, {"compound": "CCCCCCCCS(=O)(=O)Nc1cc(-c2ccccc2O)ccc1C(=O)O", "note": "[Compound 12k]", "values": [{"measurement": "IC50", "setting": "GPAT inhibition by 4-substituted derivatives (Table 1)", "value": "63.1 ± 5.5", "unit": "µM"}]}, {"compound": "CCCCCCCCS(=O)(=O)Nc1ccccc1C(=O)O", "note": "[Compound 1c, 2-(octanesulfonamido)benzoic acid]", "values": [{"measurement": "inhibitory activity against GPAT (in words)", "setting": "in vitro", "value": "comparable to 1b"}]}, {"compound": "CCCCCCCCS(=O)(=O)Nc1ccc(-c2ccccc2Cl)cc1C(=O)O", "note": "[Compound 13a]", "values": [{"measurement": "IC50", "setting": "GPAT inhibition by 5-substituted derivatives (Table 2)", "value": "14.4 ± 1.3", "unit": "µM"}]}, {"compound": "CCCCCCCCS(=O)(=O)Nc1ccc(-c2cccc(Cl)c2)cc1C(=O)O", "note": "[Compound 13b]", "values": [{"measurement": "fold increase in inhibitory activity compared to 1c", "value": 2.9, "unit": "fold"}]}, {"compound": "CCCCCCCCS(=O)(=O)Nc1cc(CCc2ccc(OC)cc2)ccc1C(=O)O", "note": "[Compound 18b]", "values": [{"measurement": "fold decrease in inhibition compared to corresponding linker-free analog", "value": 3.2, "unit": "fold"}]}, {"compound": "CCCCCCCCS(=O)(=O)Nc1cc(C(=O)c2ccc(-c3ccccc3)cc2)ccc1C(=O)O", "note": "[Compound 14b, 4-([1,1'-biphenyl]-4-carbonyl)-2-(octanesulfonamido)benzoic acid]", "values": [{"measurement": "fold increase in inhibitory activity compared to 1c", "value": 3, "unit": "fold"}, {"measurement": "fold more potent inhibition compared to linker-free analog 13f", "setting": "relative to 13f", "value": 2, "unit": "fold"}]}, {"compound": "CCCCCCCCS(=O)(=O)Nc1ccc(-c2ccc(CCCC)cc2)cc1C(=O)O", "note": "[Compound 13d]", "values": [{"measurement": "fold increase in inhibitory activity compared to 1c", "value": 2.9, "unit": "fold"}]}]}
